Results taken from PMC8322648, “Brevibacillin 2V Exerts Its Bactericidal Activity via Binding to Lipid II and Permeabilizing Cellular Membranes” (Frontiers in Microbiology, 2021).

Key:
S. aureus (MRSA) = assay: Membrane permeability assay, concentration series (fluorescence microscopy); format: cell-based, Staphylococcus aureus; details: 15 min; for concentration needed to permeabilize virtually all cellular membranes: comparison of brevibacillin and brevibacillin 2V
Description: Staphylococcus aureus ATCC15975 (MRSA) was grown to an OD600 of 0.8. The culture was pelleted at 5,000 × g for 5 min and washed three times in 10 mm HEPES with 10 mm glucose (pH 7.2). After normalization of the cell density to an OD600 of 0.2 in 10 mm HEPES with 10 mm glucose (pH 7.2), a 2-fold MIC concentration of brevibacillins (4 μg/ml) or nisin (8 μg/ml) was added. At the same time, SYTO® 9 and propidium iodide (LIVE/DEAD Baclight Bacterial Viability Kit, Invitrogen) were added to the above cell suspensions. After incubation at room temperature for 15 min, peptides were removed and washed three times with 10 mm HEPES with 10 mm glucose (pH 7.2). Then, the cell suspensions were loaded on 1.5% agarose pads and analyzed by DeltaVision Elite microscope (Applied Precision; [Zhao and Kuipers, 2021]).
GraphPad Prism 7.0 was used to fit the data of time-killing assay, DiSC3(5) assay, fluorescence quenching assay, ITC assay, and CF Leakage assay in Figures 3–7. The fluorescence images (ratio of membrane permeabilized cells) were quantified by the software Adobe Photoshop 2021. The Kd values of brevibacillins to Lipid II were calculated using the Nano Analyze Software (Waters LLC). The statistical significance of the data was assessed using Duncan’s multiple range test with the software SPSS Statistics 26; values of p < 0.05 were considered to be statistically significant.
Figure 7 Brevibacillins disrupt membrane permeability without the need for Lipid II binding. (A), Cartoon schematic of the assay used to assess membrane permeability disruption of brevibacillins. (B), CF releases (%) vs. time graph showing the effects of adding brevibacillins to DOPC-LUVs with 0.1% Lipid II; peptide concentrations were 100 nm; a, when peptides were added; and b, when 20% Triton X-100 added. (C), CF releases (%) vs. time graph showing the effects of adding brevibacillins to LUVs of pure DOPC; peptide concentrations were 100 nm; a, when peptides were added; and b, when 20% Triton X-100 was added. (D), fluorescence microscopic images of S. aureus (MRSA) after have been treated by a series concentrations of brevibacillins and nisin for 15 min. (E), the ratio of membrane permeabilized cells that was quantified by Adobe Photoshop 2021; the data are representative of three independent experiments.
To investigate the in vivo membrane disruption capacity of brevibacillin and brevibacillin 2V, a membrane permeability assay was performed with a series of concentrations of antibiotics. Nisin was used as a control.

[1] = Isothermal titration calorimetry; format: binding; details: Figure 5; DOPC LUVs with 2 mol % Lipid II titrated into 50 μM peptide, 10 mM Tris-HCl, 100 mM NaCl, pH 8, 25°C
Description: LUVs containing Lipid II (2%, mol/mol) were prepared by mixing the appropriate volumes of Lipid II and DOPC stock solutions in CHCl3/MeOH (2:1, v/v). The lipid solutions were dried by a nitrogen stream and hydrated with 10 mm Tris-HCl, 100 mm NaCl, and pH 8 buffer to a lipid-phosphate concentration of ~ 20 mm. LUVs were obtained after 10 times freeze-thaw cycles followed by 10 rounds of extrusion through 200 nm membrane filters (Whatman Nuclepore, Track-Etch Membranes). The concentration of lipid-phosphate was determined as described ([Rouser et al., 1970]).
Isothermal titration calorimetry was performed with the Low Volume Nano ITC (Waters LLC, New Castle, DE, United States) to determine the interaction between LUVs and brevibacillins. Brevibacillins were diluted in a buffer (10 mm Tris-HCl, 100 mm NaCl, and pH 8) to a final concentration of 50 μm. Samples were degassed before use. The chamber was filled with 177 μl of the brevibacillins solutions, and the LUVs were titrated into the chamber at a rate of 2 μl/300 s with a stirring rate of 300 rpm. Experiments were performed at 25°C. Control experiments were performed with Lipid II-free LUVs. The Kd values of brevibacillins to Lipid II were calculated using the Nano Analyze Software (Waters LLC).

[2] = Carboxyfluorescein leakage assay, DOPC LUVs with 0.1% Lipid II; details: peptide 100 nM; for membrane permeabilization (CF leakage), Lipid II containing LUVs: LUVs 5 μM, DOPC plus 0.1% Lipid II, 25 mM Tris-HCl, 150 mM NaCl, pH 7.5, ex 492/em 515 nm
Description: LUVs that contain DOPC or DOPC plus 0.1% Lipid II were prepared for a carboxyfluorescein (CF) leakage assay. The lipids were dried by a nitrogen stream and followed under vacuum for 2 h. After that, the lipids were hydrated by adding 25 mm Tris-HCl, 150 mm NaCl, and pH 7.5 containing 50 mm CF. The suspensions were frozen and thawed 10 times, followed by extrusion through 200nm membrane filters (Whatman Nuclepore, Track-Etch Membranes) 10 times. The excess dye was removed by loading vesicles on a spin column (Sephadex G50) for 2 min at 500 × g. Subsequently, the vesicles were diluted to 5 μm, and the brevibacillins-induced release of CF from the vesicles was monitored by measuring the increase in fluorescence intensity. The maximum fluorescence was reached by adding 10 μl of 20% Triton X-100. A Cary Eclipse Fluorescence Spectrophotometer (Agilent, United States) was used to determine the changes of fluorescence signals, and the excitation wavelength and emission wavelength were adjusted to 492 nm and 515 nm, respectively.

[3] = Circular dichroism assay, 7-Lipid II; format: binding; details: 10 mM boric acid-NaOH pH 7.5, 0.1% CHAPS, 20°C; for conformational change in presence of DOPC: antibiotic 50 μM, DOPC vesicles 100 μM; for conformational change in presence of 7-Lipid II: antibiotic and 7-Lipid II 50 μM
Description: Lipid II and 7-Lipid II (a heptaprenyl version of Lipid II) were synthesized and purified as described in a previous study ([Breukink et al., 2003]; Figures 2A,B). Purified Lipid II and 7-Lipid II were dissolved in CHCl3/MeOH (2:1) and stored at −20°C until use, and the concentration was determined after destruction to inorganic phosphate according to [Rouser et al. (1970)]. 7-Lipid II was only used in circular dichroism assays, while wild-type Lipid II was used in all of the other assays.
7-Lipid II and 1,2-dioleoyl-sn-glycero-3-phosphocholine (DOPC) were resuspended in 10 mm boric acid-NaOH pH 7.5 containing 0.1% CHAPS. The final concentration of antibiotics and 7-Lipid II was adjusted to 50 μm, while a 100 μm final concentration of DOPC vesicles was used. After added the samples to a quartz cuvette with a path length of 1 mm, the CD spectra were recorded with a Jasco-810 CD spectropolarimeter at 20°C. The ellipticity was recorded between 185 nm and 260 nm at a 0.2-nm step size with 1-s response time. The spectra were averaged over five recordings with a scanning speed of 50 nm/min.

[4] = ref Zhao et al., 2021; cited from earlier work

Row | Substance | membrane permeabilization capacity, comparison (S. aureus (MRSA); 100 nM and 400 nM, ratio of membrane permeabilized cells, three independent experiments, p < 0.05) | concentration needed to permeabilize virtually all cellular membranes (S. aureus (MRSA)) | Kd [1] | percentage of CF leakage, comparison in words ([2]; LUVs with 0.1% Lipid II) | membrane permeabilization (CF leakage), Lipid II containing LUVs [2] | conformational change in presence of DOPC [3] | conformational change in presence of 7-Lipid II [3] | rank order of calculated hydrophobicity [4] | membrane permeabilization at 100 nM (S. aureus (MRSA); 100 nM, versus untreated group)
1 | Brevibacillin | significantly (p < 0.05) higher membrane permeabilization capacity than brevibacillin 2V | a similar concentration of brevibacillin and brevibacillin 2V is needed | 0.869 µM | higher percentage of CF leakage than brevibacillin 2V | rapid membrane permeabilization | no change was apparent | significant conformational change | brevibacillin I > brevibacillin > brevibacillin V > brevibacillin 2V | 
2 | Brevibacillin 2V |  | a similar concentration of brevibacillin and brevibacillin 2V is needed | 7.89 µM |  | rapid membrane permeabilization | no change was apparent | significant conformational change | brevibacillin I > brevibacillin > brevibacillin V > brevibacillin 2V | did not induce membrane permeabilization
